Laboratory results from PubChem BioAssay (NCI).
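Dose response: 5 concentrations. Exposure: 48 h. Format: 96-well plates. Endpoint: linear interpolation; highest concentration if not reached. Abbreviation: GI50, concentration required for 50% inhibition of growth. TGI: total growth inhibition.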

What was measured:
Assay in all cases: DTP human tumour cell line panel, 48 h
786-0 renal = tested on: 786-0 renal
A498 renal = tested on: A498 renal
A549 NSCLC = tested on: A549 NSCLC
ACHN renal = tested on: ACHN renal
BT-549 breast = tested on: BT-549 breast
CAKI-1 renal = tested on: CAKI-1 renal
CCRF-CEM leukemia = tested on: CCRF-CEM leukemia
COLO 205 colon = tested on: COLO 205 colon
DU-145 prostate = tested on: DU-145 prostate
EKVX NSCLC = tested on: EKVX NSCLC
HCC-2998 colon = tested on: HCC-2998 colon
HCT-116 colon = tested on: HCT-116 colon
HCT-15 colon = tested on: HCT-15 colon
HL-60(TB) leukemia = tested on: HL-60(TB) leukemia
HOP-62 NSCLC = tested on: HOP-62 NSCLC
HOP-92 NSCLC = tested on: HOP-92 NSCLC
HS 578T breast = tested on: HS 578T breast
HT29 colon = tested on: HT29 colon
IGROV1 ovarian = tested on: IGROV1 ovarian
K-562 leukemia = tested on: K-562 leukemia
KM12 colon = tested on: KM12 colon
LOX IMVI melanoma = tested on: LOX IMVI melanoma
M14 melanoma = tested on: M14 melanoma
MALME-3M melanoma = tested on: MALME-3M melanoma
MCF7 breast = tested on: MCF7 breast
MDA-MB-231 breast = tested on: MDA-MB-231 breast
MDA-MB-435 = tested on: MDA-MB-435
MOLT-4 leukemia = tested on: MOLT-4 leukemia

Cc1c([C@H](C(Cl)Cl)[C@H](O)[C@H]2C[C@H](C)C(=O)O2)ccc2c1C(=O)[C@H]1[C@H]2C[C@@H](Br)[C@@]23O[C@@H](CO[C@H]2O)CC13C (stereo not given in full)
GI50 (786-0 renal): 481 nM | TGI (786-0 renal): 21.9 µM | GI50 (A498 renal): 304 nM | TGI (A498 renal): > 11.1 µM | GI50 (A549 NSCLC): 435 nM | TGI (A549 NSCLC): > 50 µM | GI50 (ACHN renal): 2260 nM | TGI (ACHN renal): > 50 µM | GI50 (BT-549 breast): 1010 nM | TGI (BT-549 breast): > 36.3 µM | GI50 (CAKI-1 renal): 798 nM | TGI (CAKI-1 renal): > 29.5 µM | GI50 (CCRF-CEM leukemia): 330 nM | TGI (CCRF-CEM leukemia): > 50 µM | GI50 (COLO 205 colon): 213 nM | TGI (COLO 205 colon): 1090 nM | GI50 (DU-145 prostate): 157 nM | TGI (DU-145 prostate): 2050 nM | GI50 (EKVX NSCLC): 695 nM | TGI (EKVX NSCLC): > 50 µM | GI50 (HCC-2998 colon): 215 nM | TGI (HCC-2998 colon): 1120 nM | GI50 (HCT-116 colon): 206 nM | TGI (HCT-116 colon): 5.07 µM | GI50 (HCT-15 colon): 373 nM | TGI (HCT-15 colon): > 50 µM | GI50 (HL-60(TB) leukemia): 112 nM | TGI (HL-60(TB) leukemia): > 50 µM | GI50 (HOP-62 NSCLC): 571 nM | TGI (HOP-62 NSCLC): > 50 µM | GI50 (HOP-92 NSCLC): 636 nM | TGI (HOP-92 NSCLC): > 45.3 µM | GI50 (HS 578T breast): 708 nM | TGI (HS 578T breast): > 39.5 µM | GI50 (HT29 colon): 179 nM | TGI (HT29 colon): > 50 µM | GI50 (IGROV1 ovarian): 845 nM | TGI (IGROV1 ovarian): > 29.6 µM | GI50 (K-562 leukemia): 217 nM | TGI (K-562 leukemia): > 50 µM | GI50 (KM12 colon): 260 nM | TGI (KM12 colon): > 16.6 µM | GI50 (LOX IMVI melanoma): 602 nM | TGI (LOX IMVI melanoma): > 50 µM | GI50 (M14 melanoma): 207 nM | TGI (M14 melanoma): 1180 nM | GI50 (MALME-3M melanoma): 275 nM | TGI (MALME-3M melanoma): > 50 µM | GI50 (MCF7 breast): 172 nM | TGI (MCF7 breast): > 50 µM | GI50 (MDA-MB-231 breast): 561 nM | TGI (MDA-MB-231 breast): > 15.2 µM | GI50 (MDA-MB-435): 136 nM | TGI (MDA-MB-435): 425 nM | GI50 (MOLT-4 leukemia): 1120 nM
